Experimental data: US20080027042A1, “Novel Aminopyridine Derivatives Having Aurora a Selective Inhibitory Action” (priority 2004, published 2008)
Counter-ions that a name gives are not always drawn.

Assays:
Aurora B = biological target: T1, Aurora B (Homo sapiens, UniProt Q96GD4); test: Aurora B inhibitory action (33P-ATP kinase assay, Kemptide substrate); format: biochemical; details: 100 μM ATP, 30° C., 20 minutes
T1 construct: histidine tag (N); made in house; host or cells: Escherichia coli BL21-CodonPlus(DE3)-RIL
Excerpt: Aurora B Inhibitory Action
(1) Purification of Aurora B
(§1) cDNA of Aurora B having histidine tag fused at the amino terminal was integrated into an expression vector, which was then highly expressed in Escherichia coli BL21-CodonPlus(DE3)-RIL cells. The Escherichia coli cells were recovered and solubilized, and then the histidine-tagged […] protein was adsorbed onto a nickel chelate column and eluted from the column with imidazole. The active fraction was desalted with a desalting column to give a pure enzyme.
(2) Measurement of Activity of Aurora B
For measurement of the activity of Aurora B, the substrate used was Kemptide (Lys-Arg-Arg-Ala-Ser-Lys-Gly) (SEQ.ED.NO.: 1), a synthetic peptide purchased from Sigma-Aldrich, Inc. [Certificate of analysis (Upstate, Inc.)].
Reaction was conducted by a partial modification of the method of activity measurement for Aurora A. The amount of the reaction liquid was 21.1 μL, and the composition of the reaction buffer (R2 buffer) was 50 mM Tris-hydrochloride buffer (pH 7.4)/15 mM magnesium acetate/0.2 mM ethylenediamine-N,N,N′,N′-tetraacetate (EDTA). To this, purified Aurora B, 100 μM of a substrate peptide, 100 μM of unlabeled adenosine triphosphate (ATP) and 1 μCi of [γ-^33P] labeled ATP (2,500 Ci/mmole or more) were added, and the mixture was reacted at 30° C. for 20 minutes. Then, 10 μL of 350 mM phosphate buffer was added to the reaction system to stop the reaction. The substrate peptide was adsorbed on a P81 paper filter 96-well plate and then washed with 130 mM phosphate buffer for several times. The radiation activity of the peptide was measured with a liquid scintillation counter. The [γ-^33P] labeled ATP was purchased from Amersham Biosciences Co., Ltd.
(§2) The compound to be tested was added to the reaction system such that a dilution series of the compound in dimethylsulfoxide was first prepared, and 1.1 μL of this solution was added. A control was provided by adding 1.1 μL of DMSO to the reaction system.

Aurora A = biological target: T2, Aurora A (Homo sapiens, UniProt O14965); test: Aurora A inhibitory action (33P-ATP kinase assay, Kemptide substrate); format: biochemical; details: 20 μM ATP, 30° C., 20 minutes
T2 construct: histidine tag (N); made in house; host or cells: Escherichia coli BL21-CodonPlus(DE3)-RIL
T2 sequence (O14965 1-403): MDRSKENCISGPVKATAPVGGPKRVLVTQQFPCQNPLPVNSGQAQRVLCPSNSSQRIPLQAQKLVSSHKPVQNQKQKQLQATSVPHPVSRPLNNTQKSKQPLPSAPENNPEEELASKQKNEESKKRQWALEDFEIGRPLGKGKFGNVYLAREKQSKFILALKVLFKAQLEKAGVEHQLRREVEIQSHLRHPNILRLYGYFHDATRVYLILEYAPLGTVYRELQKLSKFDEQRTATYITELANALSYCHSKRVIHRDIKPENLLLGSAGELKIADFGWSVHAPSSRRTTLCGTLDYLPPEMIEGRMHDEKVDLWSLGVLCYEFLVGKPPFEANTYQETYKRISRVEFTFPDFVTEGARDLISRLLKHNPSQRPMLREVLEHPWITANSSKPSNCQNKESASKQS
Excerpt: Aurora A Inhibitory Action
(1) Purification of Aurora A
as §1, with “A” for “B”, “BL2 1-CodonPlus(DE3)-RIL” for “BL21-CodonPlus(DE3)-RIL”
(2) Measurement of Activity of Aurora A
For measurement of the activity of Aurora A, the substrate used was Kemptide (Lys-Arg-Arg-Ala-Ser-Lys-Gly) (SEQ.ID.NO.: 1), a synthetic peptide purchased from Sigma-Aldrich, Inc. [Certificate of analysis (Upstate, Inc.)].
Reaction was conducted by a partial modification of a method by Upstate, Inc. [Kinase Profiler™ Assay Protocols]. The amount of the reaction liquid was 21.1 μL, and the composition of the reaction buffer (R2 buffer) was 50 mM Tris-hydrochloride buffer (pH 7.4)/15 mM magnesium acetate/0.2 mM ethylenediamine-N,N,N′,N′-tetraacetate (EDTA). To this, purified Aurora A, 100 μM of a substrate peptide, 20 μM of unlabeled adenosine triphosphate (ATP) and 0.5 μCi of [γ-^33P] labeled ATP (2,500 Ci/mmole or more) were added, and the mixture was reacted at 30° C. for 20 minutes. Then, 10 μL of 350 mM phosphate buffer was added to the reaction system to stop the reaction. The substrate peptide was adsorbed on a P81 paper filter 96-well plate and then washed with 130 mM phosphate buffer for several times. The radiation activity of the peptide was measured with a liquid scintillation counter. The [γ-^33P] labeled ATP was purchased from Amersham Biosciences Co., Ltd.
as §2

T1 sequence (Q96GD4 whole entry): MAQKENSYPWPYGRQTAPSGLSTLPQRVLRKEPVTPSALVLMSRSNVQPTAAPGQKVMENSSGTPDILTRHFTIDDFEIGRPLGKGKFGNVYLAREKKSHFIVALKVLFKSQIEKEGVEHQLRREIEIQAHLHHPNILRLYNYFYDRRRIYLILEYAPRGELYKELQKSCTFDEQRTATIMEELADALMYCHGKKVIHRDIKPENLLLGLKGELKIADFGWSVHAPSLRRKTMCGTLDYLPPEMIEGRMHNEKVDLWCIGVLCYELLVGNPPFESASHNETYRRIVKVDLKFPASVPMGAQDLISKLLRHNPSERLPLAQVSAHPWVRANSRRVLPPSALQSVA

| IC50 (Aurora B) [nM] | IC50 (Aurora A) [nM] | Compound |
| --- | --- | --- |
| 760 | 1.3 | O=C(c1cccc(F)c1Cl)N1CCN(Cc2cccc(Nc3nccs3)n2)CC1 [Example 9, 6-((4-(2-chloro-3-fluorobenzoyl)piperazin-1-yl)methyl)-N-thiazol-2-ylpyridin-2-amine] |
| 92 | 0.49 | O=C(c1cccc(Cl)c1F)N1C[C@@H]2C[C@H]1CN2Cc1cccc(Nc2nccs2)n1 [Example 10, 6-(((1S,4S)-5-(3-chloro-2-fluorobenzoyl)-2,5-diazabicyclo[2.2.1]hept-2-yl)methyl)-N-thiazol-2-ylpyridin-2-amine trifluoroacetate] |
| 570 | 1.3 | O=C(c1cccc(Cl)c1F)N1C[C@H]2C[C@@H]1CN2Cc1cccc(Nc2nccs2)n1 [Example 11, 6-(((1R,4R)-5-(3-chloro-2-fluorobenzoyl)-2,5-diazabicyclo[2.2.1]hept-2-yl)methyl)-N-thiazol-2-ylpyridin-2-amine] |
| 380 | 0.89 | O=C(c1cccc(C(F)(F)F)c1F)N1CCN(Cc2cccc(Nc3nccs3)n2)CC1 [Example 13, 6-((4-(2-fluoro-3-(trifluoromethyl)benzoyl)piperazin-1-yl)methyl)-N-thiazol-2-ylpyridin-2-amine trifluoroacetate] |
| 1000 | 1.4 | O=C(c1cccc(C(F)F)c1F)N1CCN(Cc2cccc(Nc3nccs3)n2)CC1 [Example 15, 6-((4-(3-(difluoromethyl)-2-fluorobenzoyl)piperazin-1-yl)methyl)-N-thiazol-2-ylpyridin-2-amine] |
| 1300 | 1.8 | O=C(c1cccc(Cl)c1F)N1CCN(Cc2cccc(Nc3cc[nH]n3)n2)CC1 [Example 16, 6-((4-(3-chloro-2-fluorobenzoyl)piperazin-1-yl)methyl)-N-1H-pyrazol-3-ylpyridin-2-amine] |
| 830 | 1.8 | O=C(c1cccc(C(F)(F)F)c1Cl)N1CCN(Cc2cccc(Nc3cc[nH]n3)n2)CC1 [Example 18, 6-((4-(2-chloro-3-(trifluoromethyl)benzoyl)piperazin-1-yl)methyl)-N-1H-pyrazol-3-ylpyridin-2-amine trifluoroacetate] |
| 1800 | 1.1 | O=C(c1cccc(Br)c1F)N1CCN(Cc2cccc(Nc3cc[nH]n3)n2)CC1 [Example 20, 6-((4-(3-bromo-2-fluorobenzoyl)piperazin-1-yl)methyl)-N-1H-pyrazol-3-ylpyridin-2-amine trifluoroacetate] |
| 1200 | 3.6 | O=C(c1cccc(Cl)c1F)N1C[C@@H]2C[C@H]1CN2Cc1cccc(Nc2cc[nH]n2)n1 [Example 23, 6-(((1 S,4S)-5-(3-chloro-2-fluorobenzoyl)-2,5-diazabicyclo[2.2.1]hept-2-yl)methyl)-N-1H-pyrazol-3-ylpyridin-2-amine] |
| 26000 | 23 | CC(c1cccc(Nc2cc[nH]n2)n1)N1CCN(C(=O)c2cccc(Cl)c2F)CC1 (centres unmarked) [Example 24, 6-(1-(4-(3-chloro-2-fluorobenzoyl)piperazin-1-yl)ethyl)-N-1H-pyrazol-3-ylpyridin-2-amine] |

| Compound | IC50 (Aurora B) [nM] | IC50 (Aurora A) [nM] |
| --- | --- | --- |
| 6-((4-(3-(dimethylamino)benzoyl)piperazin-1-yl)methyl)-N-(5-chlorothiazol-2-yl)pyridin-2-amine [Example 73] | 410 | 17 |
| O=C(c1cccc(Br)c1F)N1CCN(Cc2cccc(Nc3nccs3)n2)CC1 [Example 12, 6-((4-(3-bromo-2-fluorobenzoyl)piperazin-1-yl)methyl)-N-thiazol-2-ylpyridin-2-amine trifluioroacetate] | 400 | 0.52 |
| O=C(Cc1ccc(Cl)c(Cl)c1)N1CCN(Cc2cccc(Nc3cc[nH]n3)n2)CC1 [Example 21, 6-((4-((3,4-dichlorophenyl)acetyl)piperazin-1-yl)methyl)-N-1H-pyrazol-3-ylpyridin-2-amine trifluoroacetate] | 6800 | 16 |
